Test results reported in US11491155B2, “Salt of a pyrimido[6,1-A]isoquinolin-4-one compound” (VERONA PHARMA PLC, priority 2015, dated 2022).
Like-named read-outs stand apart in the source and are kept apart here.

Assays:
[1] = Aerosol performance of DPI formulations (Cyclohaler, NGI); assay type: physicochemical; conditions: for †Measured Mass of 1% w/w Blend Delivered per capsule / ††RPL554 Emitted (μg) per capsule (B): Cyclohaler; for †Measured Mass of 1% w/w Blend Delivered per capsule: 5 capsules containing 20 mg powder blend, mass from weight change of capsule-loaded device; for ††RPL554 Emitted (μg) per capsule (B): NGI, mass determined from HPLC analysis of recovered samples; for ††RPL554 Emitted (μg) per capsule (B) / Calculated RPL554 Content (μg) per capsule (A): as RPL554 base; for Calculated RPL554 Content (μg) per capsule (A): calculated from delivered blend mass and measured blend content
Experimental: Capsules were hand filled with 20 mg of the 1% w/w RPL554 free base or salt variants: lactose blends, i.e. 200 μg salt per capsule, the fill weight of each capsule was recorded. Due to differences in the molecular weights of the RPL554 salt forms, the amount of RPL554 emitted per actuation varied as a function of molecular weight. The formulations were prepared with no adjustment for differences in molecular weight of the salts.
The powders were delivered via the Cyclohaler® DPI (PCH Pharmachemie, BV, The Netherlands). The Cyclohaler® DPI is a low resistance device and was operated at a flow rate of 90 L/min for 2.7 seconds. The cut off diameters for the NGI collection stages were calculated for the 90 L/min flow rate using the NGI User Guide (MSP Corporation, 2008).
The ED, FPD and FPF were determined from inertial impaction tests performed following the deposition of 5 capsules of each formulation into the NGI. For each capsule tested the combined weight of the Cyclohaler® and capsule was determined before and after operation to check that the dose had been delivered. The NGI was fitted with a pre-separator for these determinations. The central cup of the pre-separator was filled with 15 mL of diluent. Following deposition, the solution was recovered in a 20 mL volumetric flask and made up to volume with diluent. RPL554 was quantitatively recovered from the device, induction port and each of the NGI collection stages with 10 mL of diluent.
The volume of diluent used for each sample was selected to ensure RPL554 concentrations were above the limit of quantitation.

[2] = Intrinsic dissolution of compressed tablet, pH 7.0, 37° C. (Sirius inForm); assay type: physicochemical; conditions: pH 7.0, 0.15 M NaCl, 37° C.
Experimental: The dissolution assay (pH-dependent sample dissolution) was investigated using the Sirius inForm.
Dissolution of a compressed tablet of the compound was monitored in a pH 7.0 aqueous dissolution experiment (0.15 M NaCl) at 37° C. using UV-absorption spectroscopy in 2 hour experiments. A tablet with a diameter of 3 mm, requiring approximate weights of 10 mg was compressed under a weight of 100 kg load force. Only one face of the tablet was exposed to the dissolution medium, which contained a 0.01 M acetate/phosphate buffer system to minimise perturbation of the experimental pH from dissolution of the drug.
Stirring of the solution was continuous and at a constant rate of 100 rpm. The absorption data was converted to absolute sample weights using previously determined, pH-dependent, molar extinction coefficients. An appropriate wavelength range was chosen to ensure that spectroscopic data with an absorption value of <1.3 was analysed, avoiding erroneous dissolution results due to saturation of the UV light source.

[3] = Solubility of RPL554 and salts in pMDI propellant systems; assay type: physicochemical
Experimental: Quantitative assessment of the solubility of RPL554 and salt variants in the propellant systems of selected pMDI formulations (three replicates of each formulation) was performed. pMDIs were directly coupled to an adaptor fitted with a 0.20 μm filter unit connected, in series to a 21 G needle, which was inserted via a rubber septum, into a cooled multi-dose glass vial. A 19 G filter needle was inserted through the septum to aid evaporation of propellant from the vial. Prior to the filtration process the vial was cooled in a mixture of dry ice and acetone to ensure that the pressure within the vial was reduced in order to facilitate collection of the output from the pMDI. Ten consecutive actuations of the pMDI were fired through the filter and collected in the vial. Between actuations the canister was shaken for approximately 10 seconds. The pMDI unit was weighed before and after the filtering procedure. The filtrate was stored at room temperature and allowed to evaporate to dryness.
Samples were recovered by carefully rinsing the inside of the vials with 1 mL of recovery solution before transfer to HPLC vials for analysis. The estimated % of RPL554 solubilised within the canister was calculated from the starting mass of RPL554 within the canisters, which in turn was calculated using the theoretical molecular weight values of the RPL554 free base and salt variants shown in Table 13. The theoretical molecular weight estimates of the salts were provided by Verona.

[4] = Primary particle size analysis by laser light diffraction (Mastersizer 2000); assay type: physicochemical; conditions: micronised, mean n=3
Experimental: A Mastersizer 2000 fitted with a Scirocco 2000 dry powder dispersion unit (Malvern Instruments Ltd, UK) was used to analyse the primary particle size of the micronised RPL554 and salt variants. The salts (50 mg) were automatically sampled via a vibrating feed control at a feeder rate of 60% and dispersed in compressed air at a pressure of 3 bar.

[5] = Physico-chemical characteristics of salt candidates: solubility in water, pH of aqueous suspension/solution, form post water maturation
[6] = RPL554 content and content uniformity of 1% w/w lactose powder blends; assay type: physicochemical; conditions: for Measured Blend Content (% Theoretical): 1% w/w RPL554 variant: lactose powder blend, expressed as RPL554 base; for **Adjusted RPL554 Content per capsule: per 20 mg capsule of 1% w/w lactose blend, adjusted for measured blend content (% theoretical), as RPL554 base
Experimental: Batches (approximately 5 g) of 1% w/w RPL554 free base or salt variants: lactose blends were prepared. In brief, the RPL554 free base or salt plus a small quantity of lactose was passed through a 38 μm sieve. The sieved material plus the remaining lactose was mixed in a glass mortar prior to transfer to a stainless steel screw cap jar and further mixing (10 minutes at 46 rpm) conducted using a Turbula blender. The composition of the dry powder blend was 0.05 g API and 4.95 g lactose.
In order to determine the content uniformity of the blends, aliquots (approx. 20 mg) of powder were sampled from each blend, accurately weighed, and diluted to volume in 10 mL volumetric flasks with diluent. The flasks were sonicated for 3 minutes before samples were transferred to HPLC vials for analysis.

[7] = Solubility of RPL554 salts in saline solutions, water and aqueous buffer solutions at 25° C. (HPLC); assay type: physicochemical; conditions: for solubility at 24 h: thermodynamic from solid
Experimental: The behaviour of salts of RPL554 were examined under the following conditions: • Phosphate buffered to pH 3.5 in saline, 0.9% w/w at 25° C. • Acetate buffered to pH 4.5 in saline, 0.9% w/w at 25° C. • Citro-Phosphate buffered to pH 4.5 in saline, 0.9% w/w at 25° C. • Phosphate buffered to pH 6.5 in saline, 0.9% w/w at 25° C. • Saline, 0.7, 0.9 and 1.1% w/w at 25° C. • Deionised water at 25° C.
RPL554 salts and RPL554, ca 50 mg, were suspended in the various aqueous media, 1 ml, with agitation at the specified temperatures for 24 hours. The solids were isolated and dried in vacuo at 45° C. The retained filtrates were examined by HPLC.
Additional RPL554 methane sulfonate salt, ca 50 mg, was charged to the water mixtures at 25° C. and 37.5° C. in order to afford a suspension. In all other cases, suspensions were obtained.
The solubility of the RPL554 was determined by HPLC using a single point calibration and is expressed as RPL554 and not as the salt and are detailed in Table 6 and Table 7 for the various conditions utilised.

[8] = listed as benzenesulfonate salt
[9] = HFA 134a: 227: 10% Ethanol: 0.1% Tween
[10] = in HFA 134, listed as Free Base
[11] = in HFA 134 with Ethanol/Tween, listed as Free Base

## COc1cc2c(cc1OC)-c1c/c(=N\c3c(C)cc(C)cc3C)n(CCNC(N)=O)c(=O)n1CC2 [Benzenesulfonate, RPL554 benzenesulfonate]
[1]
  †Measured Mass of 1% w/w Blend Delivered per capsule: 20.04 mg
  ††RPL554 Emitted (μg) per capsule (B): 87.57 µg
  Calculated RPL554 Content (μg) per capsule (A): 134.49 µg
[2]; [8]
  Mass of salt (μg) dissolved after 2 hours, Average: 60.1 µg
  Mass of salt (μg) dissolved after 2 hours, Test 1: 50.0 µg
  Mass of salt (μg) dissolved after 2 hours, Test 2: 70.1 µg
[3]; in HFA 134 with Ethanol/Tween
  Estimated RPL554 solubilised (%): 4.03%
  Estimated Solubilised RPL554 μg per 50 μL actuation: 6.05 µg
  Solubility RPL554: 90.57 µg/g
[4]
  D (0.1) (μm): 0.46 μm
  D (0.5) (μm): 1.23 μm
  D (0.9) (μm): 3.51 μm
[5]; listed as Benzene sulfonic
  pH of aqueous suspension/solution: 3.43
[5]; water
  solubility: 1470 µg/mL
[6]
  Measured Blend Content (% Theoretical): 89.34 % Theoretical
  **Adjusted RPL554 Content per capsule: 134.22 µg
[7]; 0.7% w/w saline, saline or isotonic, 24 hours, read-out: Solubility as RPL554 (mg/ml) in 0.7 w/w % Saline
  solubility at 24 h: 2.27 mg/mL
[7]; 0.9% w/w saline, saline or isotonic, 24 hours, read-out: Solubility as RPL554 (mg/ml) in 0.9 w/w % Saline
  solubility at 24 h: 2.74 mg/mL
[7]; 1.1% w/w saline, saline or isotonic, 24 hours, read-out: Solubility as RPL554 (mg/ml) in 1.1 w/w % Saline
  solubility at 24 h: 2.94 mg/mL
[7]; acetate buffer in 0.9% w/w saline, pH 4.5, aqueous buffer, in saline 0.9% w/w, read-out: Solubility as RPL554 (mg/ml) in buffer solution pH 4.5, Acetate
  solubility at 24 h: 1.39 mg/mL
[7]; citro-phosphate buffer in 0.9% w/w saline, pH 4.5, aqueous buffer, in saline 0.9% w/w, read-out: Solubility as RPL554 (mg/ml) in buffer solution pH 4.5, Citro-phosphate
  solubility at 24 h: 1.57 mg/mL
[7]; phosphate buffer in 0.9% w/w saline, pH 3.5, aqueous buffer, in saline 0.9% w/w, read-out: Solubility as RPL554 (mg/ml) in buffer solution pH 3.5, Phosphate
  solubility at 24 h: 1.1 mg/mL
[7]; deionised water, 24 hours, read-out: Solubility as RPL554 (mg/ml) in Water
  solubility at 24 h: 2.57 mg/mL

## COc1cc2c(cc1OC)-c1c/c(=N\c3c(C)cc(C)cc3C)n(CCNC(N)=O)c(=O)n1CC2 [Naphthalene-2-sulfonate]
[7]; 24 hours
  Solubility as RPL554 (mg/ml) in 0.7 w/w % Saline: 0.17 mg/mL
  Solubility as RPL554 (mg/ml) in 0.9 w/w % Saline: 0.09 mg/mL
  Solubility as RPL554 (mg/ml) in 1.1 w/w % Saline: 0.09 mg/mL
[7]; deionised water, 24 hours
  Solubility as RPL554 (mg/ml) in Water: 0.13 mg/mL

## COc1cc2c(cc1OC)-c1c/c(=N\c3c(C)cc(C)cc3C)n(CCNC(N)=O)c(=O)n1CC2 [Phosphate, RPL554 phosphate]
[5]; listed as Phosphoric
  pH of aqueous suspension/solution: 3.08
[7]; 24 hours
  Solubility as RPL554 (mg/ml) in 0.7 w/w % Saline: 7.22 mg/mL
  Solubility as RPL554 (mg/ml) in 0.9 w/w % Saline: 4.78 mg/mL
  Solubility as RPL554 (mg/ml) in 1.1 w/w % Saline: 2.86 mg/mL
[7]; deionised water, 24 hours
  Solubility as RPL554 (mg/ml) in Water: 41.84 mg/mL

## COc1cc2c(cc1OC)-c1c/c(=N\c3c(C)cc(C)cc3C)n(CCNC(N)=O)c(=O)n1CC2 [RPL554, 9,10-dimethoxy-2-(2,4,6-trimethylphenylimino)-3-(N-carbamoyl-2-aminoethyl)-3,4,6,7-tetrahydro-2H-pyrimido[6,1-a]isoquinolin-4-one]
[1]; listed as Free Base
  †Measured Mass of 1% w/w Blend Delivered per capsule: 20.12 mg
  ††RPL554 Emitted (μg) per capsule (B): 133.59 µg
  Calculated RPL554 Content (μg) per capsule (A): 194.03 µg
[2]; listed as free base
  Mass of salt (μg) dissolved after 2 hours, Average: 13.5 µg
  Mass of salt (μg) dissolved after 2 hours, Test 1: 10.0 µg
  Mass of salt (μg) dissolved after 2 hours, Test 2: 17.0 µg
[3]; [9]
  Estimated Solubilised RPL554 μg per 50 μL actuation: 1.06 µg
  Solubility RPL554: 16.11 µg/g
[3]; HFA 134a: 227: 10% Ethanol: 0.1% Tween, listed as Free base
  Estimated RPL554 solubilised (%): 0.53%
[3]; in HFA 134, BLQ = below limit of quantitation (0.06 μg/mL), listed as Free Base
  Solubility RPL554 (μg/g): BLQ
[3]; [10]
  Calculated RPL554 solubilised (%): BLQ
  Calculated Solubilised RPL554 μg per 50 μL actuation: BLQ
[3]; [11]
  Estimated RPL554 solubilised (%): 0.56%
  Estimated Solubilised RPL554 μg per 50 μL actuation: 1.12 µg
  Solubility RPL554: 16.45 µg/g
[4]; listed as Free base
  D (0.1) (μm): 0.58 μm
  D (0.5) (μm): 1.37 μm
  D (0.9) (μm): 3.00 μm
[6]; listed as Free Base
  Measured Blend Content (% Theoretical): 96.44 % Theoretical
  **Adjusted RPL554 Content per capsule: 192.87 µg

## COc1cc2c(cc1OC)-c1c/c(=N\c3c(C)cc(C)cc3C)n(CCNC(N)=O)c(=O)n1CC2 [Sulfuric - ethanol solution]
[5]
  pH of aqueous suspension/solution: 3.28
